Experimental data taken from the NIST ThermoML archive (doi:10.1016/j.fluid.2017.09.005).

Assay: xn = mol fraction of the nth substance listed
Conditions: Liquid; for viscosity: Capillary tube (Ostwald / Ubbelohde) method; for mass density: Vibrating tube method

CCO [ethanol] + O
Conditions	mass density, 523.2 K [kg/m3]	mass density, 573.2 K [kg/m3]	mass density, 618.2 K [kg/m3]	viscosity, 523.2 K [mPa·s]	viscosity, 573.2 K [mPa·s]	viscosity, 618.2 K [mPa·s]
20000 kPa, x1 = 0.1	745.9	649.3	445.3	0.12	0.085	0.054
20000 kPa, x1 = 0.2	694.1	585.4	281.3	0.119	0.078	0.035
20000 kPa, x1 = 0.3	653.2	534.9	250.4	0.114	0.07	0.031
20000 kPa, x1 = 0.4	622.3	494.9	253.1	0.109	0.065	0.032
20000 kPa, x1 = 0.6	578.5	446.2	270.6	0.099	0.057	0.035
20000 kPa, x1 = 0.8	550.5	426.2	295	0.092	0.054	0.038
20000 kPa, x1 = 1	533.1	421.1	314.6	0.087	0.053	0.039
30000 kPa, x1 = 0.1	761.6	674.8	566.3	0.126	0.088	0.072
30000 kPa, x1 = 0.2	713.6	621.4	501.5	0.127	0.084	0.065
30000 kPa, x1 = 0.3	676.9	582.5	460.9	0.125	0.079	0.059
30000 kPa, x1 = 0.4	650.7	553.5	437.4	0.119	0.075	0.057
30000 kPa, x1 = 0.6	612.4	517.6	420.1	0.113	0.069	0.055
30000 kPa, x1 = 0.8	588.9	499	418.9	0.107	0.067	0.055
30000 kPa, x1 = 1	573.6	491.5	423.8	0.103	0.066	0.055
40000 kPa, x1 = 0.1	773.2	694.9	610.3	0.132	0.093	0.081
40000 kPa, x1 = 0.2	728.3	647.6	561	0.132	0.091	0.076
40000 kPa, x1 = 0.3	694.7	614	529.3	0.134	0.089	0.073
40000 kPa, x1 = 0.4	671.6	587.9	509.1	0.128	0.085	0.07
40000 kPa, x1 = 0.6	636.3	557.4	488.2	0.124	0.08	0.067
40000 kPa, x1 = 0.8	615.2	540.4	481.7	0.119	0.078	0.067
40000 kPa, x1 = 1	601.3	531	481.2	0.115	0.077	0.067
